From ChEMBL document CHEMBL4007384, “Synthesis and optimization of furano[3,2-d]pyrimidines as selective spleen tyrosine kinase (Syk) inhibitors” (Bioorg Med Chem Lett, 2016)

Key:
[1] = molecular target: Calcium/calmodulin-dependent protein kinase type 1D (Homo sapiens, UniProt Q8IU85); experiment: Inhibition of human CAMK1D (unknown origin) after 60 mins by TR-FRET assay
[2] = molecular target: Mitogen-activated protein kinase kinase kinase kinase 4 (Homo sapiens, UniProt O95819); experiment: Inhibition of MAP4K4 (unknown origin) after 60 mins by TR-FRET assay
Chain of Mitogen-activated protein kinase kinase kinase kinase 4 (O95819 whole entry): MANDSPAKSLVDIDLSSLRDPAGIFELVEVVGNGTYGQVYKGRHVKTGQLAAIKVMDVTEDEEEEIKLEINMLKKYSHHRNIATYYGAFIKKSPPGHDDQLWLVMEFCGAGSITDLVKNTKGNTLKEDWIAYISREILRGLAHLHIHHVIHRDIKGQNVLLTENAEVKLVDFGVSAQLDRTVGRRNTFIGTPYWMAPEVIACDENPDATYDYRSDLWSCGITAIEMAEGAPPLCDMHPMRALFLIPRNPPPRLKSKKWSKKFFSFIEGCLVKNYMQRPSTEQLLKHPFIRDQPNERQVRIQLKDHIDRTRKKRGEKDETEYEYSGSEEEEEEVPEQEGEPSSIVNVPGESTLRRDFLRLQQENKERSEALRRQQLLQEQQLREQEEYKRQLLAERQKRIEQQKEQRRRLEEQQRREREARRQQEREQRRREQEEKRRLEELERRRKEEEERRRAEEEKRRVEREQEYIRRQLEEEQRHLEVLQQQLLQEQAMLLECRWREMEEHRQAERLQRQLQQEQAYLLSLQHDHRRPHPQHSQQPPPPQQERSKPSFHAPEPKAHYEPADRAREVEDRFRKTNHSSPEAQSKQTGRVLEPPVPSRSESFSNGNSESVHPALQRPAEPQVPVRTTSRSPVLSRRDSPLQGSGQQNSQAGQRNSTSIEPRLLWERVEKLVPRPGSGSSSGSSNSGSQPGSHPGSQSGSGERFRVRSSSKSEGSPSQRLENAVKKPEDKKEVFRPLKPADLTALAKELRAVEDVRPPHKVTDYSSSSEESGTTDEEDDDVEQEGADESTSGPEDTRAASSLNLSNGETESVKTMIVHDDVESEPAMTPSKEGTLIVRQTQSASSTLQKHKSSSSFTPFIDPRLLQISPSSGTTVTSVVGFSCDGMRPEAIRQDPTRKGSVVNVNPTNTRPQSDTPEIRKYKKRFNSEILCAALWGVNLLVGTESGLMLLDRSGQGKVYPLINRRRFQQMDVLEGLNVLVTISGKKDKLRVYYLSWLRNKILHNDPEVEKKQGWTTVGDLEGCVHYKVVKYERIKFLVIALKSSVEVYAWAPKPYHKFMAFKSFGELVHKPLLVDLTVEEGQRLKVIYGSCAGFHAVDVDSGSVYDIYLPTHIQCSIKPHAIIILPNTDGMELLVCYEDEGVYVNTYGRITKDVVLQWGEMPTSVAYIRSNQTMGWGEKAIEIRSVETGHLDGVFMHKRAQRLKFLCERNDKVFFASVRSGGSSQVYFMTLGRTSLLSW

[3] = molecular target: Calcium/calmodulin-dependent protein kinase type II subunit alpha (Homo sapiens, UniProt Q9UQM7); experiment: Inhibition of human CAMK2A (unknown origin) after 60 mins by TR-FRET assay
Chain of Calcium/calmodulin-dependent protein kinase type II subunit alpha (Q9UQM7 whole entry): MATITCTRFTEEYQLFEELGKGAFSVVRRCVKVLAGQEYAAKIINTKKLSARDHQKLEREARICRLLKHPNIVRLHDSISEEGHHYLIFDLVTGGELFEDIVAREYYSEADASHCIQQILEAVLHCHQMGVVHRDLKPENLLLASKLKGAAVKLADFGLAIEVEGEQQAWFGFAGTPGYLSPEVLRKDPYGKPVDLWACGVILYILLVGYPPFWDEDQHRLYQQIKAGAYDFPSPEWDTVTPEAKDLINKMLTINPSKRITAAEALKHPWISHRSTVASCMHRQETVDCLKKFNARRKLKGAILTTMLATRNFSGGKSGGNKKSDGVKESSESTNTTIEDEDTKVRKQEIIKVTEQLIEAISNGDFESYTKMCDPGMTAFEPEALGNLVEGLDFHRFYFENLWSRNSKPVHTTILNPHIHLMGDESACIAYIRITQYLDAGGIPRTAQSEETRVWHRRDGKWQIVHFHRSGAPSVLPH

[4] = molecular target: T1, Inhibitor of nuclear factor kappa-B kinase subunit epsilon (Homo sapiens, UniProt Q14164); experiment: Inhibition of IKKE (unknown origin) after 60 mins by TR-FRET assay
T1 sequence (Q14164 whole entry): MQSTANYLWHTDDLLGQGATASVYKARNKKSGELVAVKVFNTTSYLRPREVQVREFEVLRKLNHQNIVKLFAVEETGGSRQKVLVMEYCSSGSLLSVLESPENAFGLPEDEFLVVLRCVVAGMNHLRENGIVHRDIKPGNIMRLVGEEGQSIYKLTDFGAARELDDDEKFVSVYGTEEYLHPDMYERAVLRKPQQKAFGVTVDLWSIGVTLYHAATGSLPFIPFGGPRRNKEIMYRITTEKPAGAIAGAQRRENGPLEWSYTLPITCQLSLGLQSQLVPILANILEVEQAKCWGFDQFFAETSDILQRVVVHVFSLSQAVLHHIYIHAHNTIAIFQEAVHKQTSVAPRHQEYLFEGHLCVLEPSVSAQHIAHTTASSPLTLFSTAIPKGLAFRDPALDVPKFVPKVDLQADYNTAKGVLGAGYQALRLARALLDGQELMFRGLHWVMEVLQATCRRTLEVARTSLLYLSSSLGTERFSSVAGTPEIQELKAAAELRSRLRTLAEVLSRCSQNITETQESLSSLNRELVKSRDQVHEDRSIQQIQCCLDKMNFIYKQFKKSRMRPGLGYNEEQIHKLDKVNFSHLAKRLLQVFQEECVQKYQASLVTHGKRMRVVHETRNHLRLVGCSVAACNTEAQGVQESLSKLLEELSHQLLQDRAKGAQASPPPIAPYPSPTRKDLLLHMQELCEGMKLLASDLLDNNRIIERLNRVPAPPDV

[5] = molecular target: Glycogen synthase kinase-3 alpha (Homo sapiens, UniProt P49840); experiment: Inhibition of GSK3A (unknown origin) after 60 mins by TR-FRET assay
Chain of Glycogen synthase kinase-3 alpha (P49840 whole entry): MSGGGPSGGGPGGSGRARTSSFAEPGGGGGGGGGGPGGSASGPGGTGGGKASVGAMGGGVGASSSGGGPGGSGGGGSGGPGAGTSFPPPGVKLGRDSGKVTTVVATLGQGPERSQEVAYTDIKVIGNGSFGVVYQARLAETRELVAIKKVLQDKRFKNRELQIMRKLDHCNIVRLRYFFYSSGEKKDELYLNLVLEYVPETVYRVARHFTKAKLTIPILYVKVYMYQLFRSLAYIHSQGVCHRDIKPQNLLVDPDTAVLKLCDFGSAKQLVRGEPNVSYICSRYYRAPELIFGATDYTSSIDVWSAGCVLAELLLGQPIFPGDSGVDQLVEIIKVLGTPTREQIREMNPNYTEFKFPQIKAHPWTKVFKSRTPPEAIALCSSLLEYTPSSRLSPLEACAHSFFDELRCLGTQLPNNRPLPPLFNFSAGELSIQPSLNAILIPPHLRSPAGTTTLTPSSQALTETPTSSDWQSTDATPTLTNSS

[6] = molecular target: MAP kinase p38 (Homo sapiens, UniProt O15264+Q15759+Q16539+P53778); experiment: Inhibition of p38 (unknown origin) after 60 mins by TR-FRET assay
[7] = molecular target: Serine/threonine-protein kinase pim-1 (Homo sapiens, UniProt P11309); experiment: Inhibition of PIM1 (unknown origin) after 60 mins by TR-FRET assay
Chain of Serine/threonine-protein kinase pim-1 (P11309 whole entry): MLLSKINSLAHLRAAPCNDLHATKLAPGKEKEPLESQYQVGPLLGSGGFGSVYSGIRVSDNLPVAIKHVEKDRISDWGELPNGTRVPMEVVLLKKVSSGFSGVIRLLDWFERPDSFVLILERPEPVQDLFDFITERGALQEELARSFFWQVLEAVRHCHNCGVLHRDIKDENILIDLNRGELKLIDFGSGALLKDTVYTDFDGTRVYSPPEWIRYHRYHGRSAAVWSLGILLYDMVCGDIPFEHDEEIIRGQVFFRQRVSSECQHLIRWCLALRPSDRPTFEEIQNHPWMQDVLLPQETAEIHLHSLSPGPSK

[8] = molecular target: T2, Serine/threonine-protein kinase TBK1 (Homo sapiens, UniProt Q9UHD2); experiment: Inhibition of TBK1 (unknown origin) after 60 mins by TR-FRET assay
T2 sequence (Q9UHD2 whole entry): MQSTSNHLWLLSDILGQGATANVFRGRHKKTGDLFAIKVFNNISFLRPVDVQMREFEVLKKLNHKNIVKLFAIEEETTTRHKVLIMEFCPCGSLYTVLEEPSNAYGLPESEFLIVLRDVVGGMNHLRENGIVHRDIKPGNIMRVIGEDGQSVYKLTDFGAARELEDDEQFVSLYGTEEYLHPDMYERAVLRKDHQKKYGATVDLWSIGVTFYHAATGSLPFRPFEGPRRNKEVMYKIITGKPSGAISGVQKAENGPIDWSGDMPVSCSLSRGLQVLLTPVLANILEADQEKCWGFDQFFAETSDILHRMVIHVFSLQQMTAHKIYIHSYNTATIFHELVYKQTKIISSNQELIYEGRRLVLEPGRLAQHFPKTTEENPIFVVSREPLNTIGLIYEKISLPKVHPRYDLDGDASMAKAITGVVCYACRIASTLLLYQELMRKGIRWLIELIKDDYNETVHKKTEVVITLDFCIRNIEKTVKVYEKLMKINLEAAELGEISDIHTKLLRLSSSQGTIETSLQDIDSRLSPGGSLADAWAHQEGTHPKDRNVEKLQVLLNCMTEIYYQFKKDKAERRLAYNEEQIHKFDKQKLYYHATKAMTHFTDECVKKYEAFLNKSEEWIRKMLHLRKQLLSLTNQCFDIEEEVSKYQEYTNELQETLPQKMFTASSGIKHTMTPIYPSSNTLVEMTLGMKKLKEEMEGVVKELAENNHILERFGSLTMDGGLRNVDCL

[9] = molecular target: T3, Tyrosine-protein kinase SYK (Homo sapiens, UniProt P43405)
Description: Inhibition of Syk (unknown origin) after 60 mins by TR-FRET assay

[10] = molecular target: T3, Tyrosine-protein kinase SYK; remark: listed apart in the source
Description: Inhibition of Syk in human Ramos B cells assessed as decrease in intracellular calcium flux measured for 3.5 mins by calcium-5 dye based FLIPR assay

Chain of Calcium/calmodulin-dependent protein kinase type 1D (Q8IU85 whole entry): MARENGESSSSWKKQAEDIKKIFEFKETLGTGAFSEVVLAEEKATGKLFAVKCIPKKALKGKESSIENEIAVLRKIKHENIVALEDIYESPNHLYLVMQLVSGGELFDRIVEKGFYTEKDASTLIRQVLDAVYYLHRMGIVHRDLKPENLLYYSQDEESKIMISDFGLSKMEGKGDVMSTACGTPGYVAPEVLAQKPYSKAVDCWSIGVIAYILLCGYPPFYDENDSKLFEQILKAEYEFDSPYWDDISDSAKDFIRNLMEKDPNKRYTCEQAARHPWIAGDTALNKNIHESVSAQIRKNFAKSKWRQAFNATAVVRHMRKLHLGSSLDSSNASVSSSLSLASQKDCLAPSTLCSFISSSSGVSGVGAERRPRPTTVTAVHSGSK

IC50 [1] [µM]	IC50 [2] [µM]	IC50 [3] [µM]	IC50 [4] [µM]	IC50 [5] [µM]	IC50 [6] [µM]	IC50 [7] [µM]	IC50 [8] [µM]	IC50 [9] [µM]	EC50 [10] [µM]	SMILES
> 10	9.43	> 10	> 10	> 10	> 10	> 10	> 10			Cc1n[nH]c2cc(Nc3nc(NC4CC4)c4occc4n3)ccc12
> 10	> 10	> 10	> 10	9.36	> 10	1.36	> 10	0.097	0.235	FC(F)(F)CNc1nc(Nc2ccc3cn[nH]c3c2)nc2ccoc12
> 10	> 10	> 10	3.43	> 10	> 10	> 10	7.61	0.009	0.017	CC1(C)OCC(=O)Nc2cc(Nc3nc(NCC(F)(F)F)c4occc4n3)ccc21
> 10	> 10	> 10	> 10	> 10		> 10	> 10	0.069	0.117	FC(F)(F)CNc1nc(Nc2ccc(N3CCOCC3)c(Cl)c2)nc2ccoc12
